Test results published in patent publication US20050070570A1, “Novel potassium channels modulators” (4SC AG, priority 2003, published 2005).

Each compound was assayed against BK channels (CHO cells permanently transfected with cloned hSlo, α-hSlo and β-bSlo) (Homo sapiens, UniProt Q12791) (assay: Em-Assay: fluorescence membrane potential assay with voltage sensitive dye DiBAC(4)3). Conditions: ratio of the compound effect (50 μM) compared to the maximal effect of NS004 (25 or 50 μM).
Assay type: cell-based
Description: The large conductance, voltage-dependent and Ca^2+-activated potassium channel BK is a potassium selective ion channel and belongs to the subfamily of KCa channels. Four BK alpha-subunits form a functional channel that can be regulated by intracellular Ca^2+ concentration, membrane voltage, and other mechanisms like phosphorylation states or beta subunits. To test the biological activity of the compounds, we applied two different techniques, a fluorescence based assay using a voltage sensitive dye (Em-Assay) as well as exploiting electrophysiological methods.
CHO cells permanently transfected with cloned hSlo (α-hSlo and β-bSlo), yielding typical BK potassium currents (Zhou et al., Pflügers Arch., 436: 725-734 (1998), were used for the evaluation of compound activity. Activation or inhibition of BK channels in these cells leads to a change of the electrochemical gradient causing a hyperpolarized or depolarised membrane potential, respectively.
To determine changes in the membrane potential of the cells we used the voltage sensitive dye DiBaC(4)3 (Molecular Probes) in a kinetic assay system using a fluorescent plate reader (Manning and Sontheimer, J. Neurosci. Meth., 91: 73-81 (1999). The anionic bis-oxonol DiBAC(4)3 is a voltage sensitive dye which partitions from the extracellular environment into the cell where it reversibly binds to intracellular proteins, a kinetic process depending on the membrane potential of the cell. At depolarised potentials (i.e. at a reduced K^+ efflux due to blocked K^+ channels) the dye accumulates in the cell leading to an increased fluorescence intensity, due to its increased fluorescence if bound to cellular proteins. At hyperpolarized potentials (i.e. at an increased K^+ efflux due to the opening of K^+ channels), the dye partitions out of the cell causing a decreased fluorescence intensity.
hslo transfected CHO cells where maintained in DMEM supplemented with 10% FCS, 250 μg/ml Geneticin, 100 μg/m Hygromycin, 1×HT-Supplement, and 1×Non-essential Amino Acids and cultured in a humidified CO2 incubator. After trypsination, cells where plated with a density of 5×10^4 cells per well on a clear 96-well plate and incubated for 24 h. Cells where washed once with PBS, once with PBS containing 20 mM HEPES (adjusted to pH 7.4 with NaOH) and 2 μM DiBAC(4)3 (DPBS-DiBAC solution). 180 μl of the dPBS-DiBAC solution was then added to the cells and the plate incubated for 30-60 min at 37° C. During this time the dye could partition into the cells and reach a certain steady-state distribution, depending on the resting membrane potential. Test and reference compounds were stored as DMSO stock solutions and diluted in dPBS-DiBAC solution to the desired concentration.
Fluorescence intensity (Ex.: 485 nm/Em.: 520 nm) of each well was detected in the plate reader (Fluostar, BMG) every 60 seconds. After recording the baseline fluorescence for 7 minutes, 20 μl test- and reference compounds were added and the fluorescence intensity was detected for additional 15 minutes. Background was subtracted, data values were normalized and expressed as a change in fluorescence intensity against time. The change in fluorescence intensity caused by the test compounds was evaluated, compared to the effect of the reference compound NS004, and the ratio was determined (see Table I).

Chain of BK channels (CHO cells permanently transfected with cloned hSlo, α-hSlo and β-bSlo) (Q12791 whole entry): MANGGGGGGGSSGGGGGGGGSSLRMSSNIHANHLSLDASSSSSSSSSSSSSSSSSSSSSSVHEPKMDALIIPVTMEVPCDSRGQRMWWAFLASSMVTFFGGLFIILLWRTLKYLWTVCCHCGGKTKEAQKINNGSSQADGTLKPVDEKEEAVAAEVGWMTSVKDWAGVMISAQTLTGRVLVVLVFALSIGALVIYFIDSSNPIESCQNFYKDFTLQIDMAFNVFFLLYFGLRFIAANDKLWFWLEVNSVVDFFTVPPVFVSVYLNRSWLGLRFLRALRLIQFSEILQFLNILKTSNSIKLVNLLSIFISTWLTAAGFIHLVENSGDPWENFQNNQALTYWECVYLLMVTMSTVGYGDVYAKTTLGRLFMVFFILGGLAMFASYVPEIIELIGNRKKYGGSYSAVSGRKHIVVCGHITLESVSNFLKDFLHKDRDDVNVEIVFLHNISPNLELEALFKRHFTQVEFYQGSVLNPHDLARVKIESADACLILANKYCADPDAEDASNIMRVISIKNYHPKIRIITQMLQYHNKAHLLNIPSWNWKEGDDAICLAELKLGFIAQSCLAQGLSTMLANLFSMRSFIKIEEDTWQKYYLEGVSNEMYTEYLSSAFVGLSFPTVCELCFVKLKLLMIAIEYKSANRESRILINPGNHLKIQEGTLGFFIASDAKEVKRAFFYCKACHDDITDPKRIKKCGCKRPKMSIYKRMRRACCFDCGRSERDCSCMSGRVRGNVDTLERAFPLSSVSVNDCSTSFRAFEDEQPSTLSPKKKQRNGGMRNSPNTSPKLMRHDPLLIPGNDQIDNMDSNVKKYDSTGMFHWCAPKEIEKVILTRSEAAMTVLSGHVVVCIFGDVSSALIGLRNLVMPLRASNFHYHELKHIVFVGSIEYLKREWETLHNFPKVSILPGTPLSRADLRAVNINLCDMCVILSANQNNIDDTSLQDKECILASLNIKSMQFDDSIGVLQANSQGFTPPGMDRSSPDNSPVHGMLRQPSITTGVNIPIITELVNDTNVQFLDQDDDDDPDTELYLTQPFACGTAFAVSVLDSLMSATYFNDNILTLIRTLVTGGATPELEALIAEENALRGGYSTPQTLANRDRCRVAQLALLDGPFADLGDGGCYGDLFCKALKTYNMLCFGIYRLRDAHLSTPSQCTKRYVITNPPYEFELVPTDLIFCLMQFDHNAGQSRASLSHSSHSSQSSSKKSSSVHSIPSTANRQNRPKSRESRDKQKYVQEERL
Chain of BK channels (CHO cells permanently transfected with cloned hSlo, α-hSlo and β-bSlo) (Q28067 whole entry partner): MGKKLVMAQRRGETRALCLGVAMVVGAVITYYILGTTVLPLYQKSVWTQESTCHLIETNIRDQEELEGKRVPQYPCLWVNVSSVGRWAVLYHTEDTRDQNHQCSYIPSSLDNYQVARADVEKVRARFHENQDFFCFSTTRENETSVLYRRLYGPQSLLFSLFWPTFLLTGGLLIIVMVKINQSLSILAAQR

SMILES | Em effect
COc1cc2c(c(OC)c1)C(c1cccc(OC(F)(F)F)c1)N(C(=O)c1ccc(OC(F)(F)F)cc1)CC2 (stereo not shown) [Compound 30, [6,8-Dimethoxy-1-(3-tifluoromethoxy-phenyl)-3,4-dihydro-1H-isoquinolin-2-yl](4-trifluoromethoxy-phenyl)-metanone] | + (0-1=+)
COc1cc2c(c(OC)c1)C(C)N(S(=O)(=O)c1cccc([N+](=O)[O-])c1)CC2 (stereo not shown) [Compound 36, 6,8-Dimethoxy-1-methyl-2-(3-nitro-benzenesulfonyl)-1,2,3,4-tetrahydro-isoquinoline] | ++ (>1-1.5=++)
COc1cc2c(c(OC)c1)C(c1ccc(-c3ccccc3)cc1)N(C(=O)c1ccc([N+](=O)[O-])cc1)CC2 (stereo not shown) [Compound 2, (1-Biphenyl-4-yl-6,8-dimethoxy-3,4-dihydro-1H-isoquinolin-2-yl)-(4-nitro-phenyl)-methanone] | + (0-1=+)
COc1cc2c(c(OC)c1)C(C)N(S(=O)(=O)c1cc(C(F)(F)F)cc(C(F)(F)F)c1)CC2 (stereo not shown) [Compound 37, 2-(3,5-Bis-trifluoromethyl-benzenesulfonyl)-6,8-dimethoxy-1-methyl-1,2,3,4-tetra-hydroisoquinoline] | + (0-1=+)
COc1cc2c(c(OC)c1)C(c1ccc(O)cc1)N(C(=O)c1cccc(OC(F)(F)F)c1)CC2 (stereo not shown) [Compound 11, [1-(4-Hydroxy-phenyl)-6,8-dimethoxy-3,4-dihydro-1H-isoquinolin-2-yl]-(3-trifluoromethoxy-phenyl)-metanone] | + (0-1=+)
COc1ccc(C(=O)N2CCc3cc(OC)cc(OC)c3C2c2ccc(O)cc2)cc1 (stereo not shown) [Compound 22, [1-(4-Hydroxy-phenyl)-6,8-dimethoxy-3,4-dihydro-1H-isoquinolin-2-yl]-(4-methoxy-phenyl)-methanone] | + (0-1=+)
COc1ccc(C(=O)N2CCc3cc(OC)cc(OC)c3C2c2cccc(OC(F)(F)F)c2)cc1 (stereo not shown) [Compound 31, [6,8-Dimethoxy-1-(3-trifluoromethoxy-phenyl)-3,4-dihydro-1H-isoquinolin-2-yl]-(4-methoxy-phenyl)-methanone] | + (0-1=+)
COc1cc2c(c(OC)c1)C(c1cccc(OC(F)(F)F)c1)N(S(=O)(=O)c1cc(C(F)(F)F)cc(C(F)(F)F)c1)CC2 (stereo not shown) [Compound 35, 2-(3,5-Bis-trifluoromethyl-benzenesulfonyl)-6,8-dimethoxy-1-(3-trifluoromethoxy-phenyl)-1,2,3,4-tetrahydroisoquinoline] | + (0-1=+)
COc1cc2c(c(OC)c1)C(c1ccc(O)cc1)N(C(=O)c1ccno1)CC2 (stereo not shown) [Compound 27, [1-(4-Hydroxy-phenyl)-6,8-dimethoxy-3,4-dihydro-1H-isoquinolin-2-yl]-isoxazol-5-yl-methanone] | + (0-1=+)
COc1cc2c(c(OC)c1)C(C)N(C(=O)c1ccc(OC(F)(F)F)cc1)CC2 (stereo not shown) [Compound 39, (6,8-Dimethoxy-1-methyl-3,4-dihydro-1H-isoquinolin-2-yl)-(4-trifluoro-methoxy-phenyl)-methanone] | + (0-1=+)
COc1ccc(C(=O)N2CCc3cc(OC)cc(OC)c3C2C)cc1 (stereo not shown) [Compound 40, (6,8-Dimethoxy-1-methyl-3,4-dihydro-1H-isoquinolin-2-yl)-(4-methoxy-phenyl)-methanone] | + (0-1=+)

The compounds below were run against BK currents (CHO cells permanently transfected with cloned α-hSlo and β-bSlo) (Homo sapiens, UniProt Q12791) (assay: Electrophysiological studies: whole-cell patch-clamp of BK currents). Conditions: ratio of current increase after application of compound (20 μM) relative to the control current before compound application; steady-state.
Assay type: cell-based
Method: Electrophysiological Studies:
CHO cells permanently transfected with cloned α-hSlo and β-bSlo were maintained as described above and used for electrophysiological characterisation. The whole-cell configuration of the patch-lamp technique was used to determine the effect of modulators on BK currents in these cells. The cell line expressing functional BK currents (Zhou et al., Pflügers Arch. 436, p. 725 (1998)) were plated onto glass cover slips with a density of 1-5×10^4 cells/cover slip, incubated (37° C., 5% CO2) and used for patch-lamp experiments within 24-48 h. Cells were bathed in mammalian ringer solutions containing (in mM): 160NaCl, 4.5KCl, 2CaCl2, 1MgCl2, 10HEPES, adjusted to pH 7.4, 290-310 mOsm. The internal pipette solution contained (in mM): 160KCl, 2CaCl2, 1MgCl2, 10 HEPES, EGTA was added to reach a free [Ca^2+]internal=1×10^−6M, adjusted to pH 7.2, 290-310 mOsm. Borosilicate pipettes with a resistance of 2-3 MΩ were filled with the internal solution and mounted on an appropriate holder. […]
After addition of the compounds to the bath solution their modulating effect was determined by the increase or decrease of specific BK currents after reaching steady-state relative to the BK current before application of drugs (see Table II).

Chain of BK currents (CHO cells permanently transfected with cloned α-hSlo and β-bSlo) (Q12791 whole entry): as the sequence (Q12791 whole entry) above
Chain of BK currents (CHO cells permanently transfected with cloned α-hSlo and β-bSlo) (Q28067 whole entry partner): as the sequence (Q28067 whole entry partner) above

SMILES | Effect
COc1cc2c(c(OC)c1)C(c1cccc(OC(F)(F)F)c1)N(C(=O)c1ccc(OC(F)(F)F)cc1)CC2 (stereo not shown) [Compound 30, [6,8-Dimethoxy-1-(3-tifluoromethoxy-phenyl)-3,4-dihydro-1H-isoquinolin-2-yl](4-trifluoromethoxy-phenyl)-metanone] | + (<1.2 = +)
COc1cc2c(c(OC)c1)C(C)N(S(=O)(=O)c1cccc([N+](=O)[O-])c1)CC2 (stereo not shown) [Compound 36, 6,8-Dimethoxy-1-methyl-2-(3-nitro-benzenesulfonyl)-1,2,3,4-tetrahydro-isoquinoline] | ++ (>1.2 = ++)
